Measurements from patent US20080241280A1, “Usage of the Plant of Genus Ampelopsis and Extracts Thereof For Manufacture of Medicament and Functional Food” (priority 2004, published 2008).

How the values were obtained:
Format in all cases: in vivo
[1] = test system: C57/B6 mice; experiment: Pentobarbital (30 mg/kg i.p.) prolonged sleeping time in mice, loss of righting reflex; conditions: 30 mg/kg oral, 30 min prior to sodium pentobarbital 30 mg/kg i.p.; p<0.05, n>4
Protocol: (§1) C57/B6 mice were randomised into groups and orally administered; ECBRC-T2 (30 mg/kg), melatonin (30 mg/kg), Radix Valerianae (140 mg/kg) or vehicle (10 ml/kg H2O), 30 min prior to low dose injection of sodium pentobarbital (30 mg/kg, i/p.). The animals were then placed on a heating pad (37° C.) and their sleep latency to onset of sleep and the duration of sleep determined according to loss of righting reflex.

[2] = test system: C57/B6 mice; experiment: Low dose pentobarbital (16 mg/kg i.p.) sleep time in mice, loss of righting reflex; conditions: for mice sleep time: Table 3, sodium pentobarbital 16 mg/kg i.p.
Protocol: as §1, with “pentobarbital (16” for “pentobarbital (30”
C57/B6 mice were randomised into groups and orally administered ECBRC-T1 (10,50,100,500 mg/kg), 30 min prior to low dose injection of sodium pentobarbital (16 mg/kg, i/p.). The animals were then placed on a heating pad (37° C.) and their sleep latency to onset of sleep and the duration of sleep determined according to loss of righting reflex. […]
The animals were then placed on a heating pad (37° C.) and their sleep latency to onset of sleep and the duration of sleep determined according to loss of righting reflex.

[3] = test system: male C57/B6 mice; experiment: Remote sensing (telemetric) determination of mice activities; conditions: Table 5, 20 mg/kg p.o., 6 hours after administration, control 2% EtOH
Protocol: Remote sensing determination of mice activities.
Telemetric activity and temperature monitors were surgically implanted sub-coetaneously into male C57/B6 mice under ketamie (Alfasan, batch number: 112319) and xyalsine (Alfasan, batch number: 073210) (75/10 mg/kg, i.p.) anaesthesia to remotely record activity Correct placement was determined using X-ray radiography.

Structure (SMILES) | sleep time compared with the vehicle control group [1] | Sleep time (min ± SEM) ([2]; Table 1, 30 mg/kg oral, 30 min prior to sodium pentobarbital 16 mg/kg i.p.) | mice sleep time ([2]; 10 mg/kg oral) | mice sleep time ([2]; 20 mg/kg oral) | mice sleep time ([2]; 30 mg/kg oral) | Telemetric Activity (% sleep time ± SEM) [3] | Telemetric Activity (% sleep time ± SEM) ([3]; listed as zopiclone)
COc1ccc2[nH]cc(CCNC(C)=O)c2c1 [Melatonin, melatonin] | significantly difference | 63 ± 11 min | 31 ± 4 n = 4 | 63 ± 5 n = 6 | 68 ± 8 n = 6 | – | –
CN1CCN(C(=O)OC2c3nccnc3C(=O)N2c2ccc(Cl)cn2)CC1 (stereo not shown) [Zopiclone, zopiclone] | – | – | – | – | – | 66.6 ± 5.1 % | significantly extended
